Assay [1] deals with T1, DDR1 (Mus musculus, UniProt Q03146).
T1 construct: expressed in transfected cells; host or cells: HEK293T
T1 sequence (Q03146 20-911): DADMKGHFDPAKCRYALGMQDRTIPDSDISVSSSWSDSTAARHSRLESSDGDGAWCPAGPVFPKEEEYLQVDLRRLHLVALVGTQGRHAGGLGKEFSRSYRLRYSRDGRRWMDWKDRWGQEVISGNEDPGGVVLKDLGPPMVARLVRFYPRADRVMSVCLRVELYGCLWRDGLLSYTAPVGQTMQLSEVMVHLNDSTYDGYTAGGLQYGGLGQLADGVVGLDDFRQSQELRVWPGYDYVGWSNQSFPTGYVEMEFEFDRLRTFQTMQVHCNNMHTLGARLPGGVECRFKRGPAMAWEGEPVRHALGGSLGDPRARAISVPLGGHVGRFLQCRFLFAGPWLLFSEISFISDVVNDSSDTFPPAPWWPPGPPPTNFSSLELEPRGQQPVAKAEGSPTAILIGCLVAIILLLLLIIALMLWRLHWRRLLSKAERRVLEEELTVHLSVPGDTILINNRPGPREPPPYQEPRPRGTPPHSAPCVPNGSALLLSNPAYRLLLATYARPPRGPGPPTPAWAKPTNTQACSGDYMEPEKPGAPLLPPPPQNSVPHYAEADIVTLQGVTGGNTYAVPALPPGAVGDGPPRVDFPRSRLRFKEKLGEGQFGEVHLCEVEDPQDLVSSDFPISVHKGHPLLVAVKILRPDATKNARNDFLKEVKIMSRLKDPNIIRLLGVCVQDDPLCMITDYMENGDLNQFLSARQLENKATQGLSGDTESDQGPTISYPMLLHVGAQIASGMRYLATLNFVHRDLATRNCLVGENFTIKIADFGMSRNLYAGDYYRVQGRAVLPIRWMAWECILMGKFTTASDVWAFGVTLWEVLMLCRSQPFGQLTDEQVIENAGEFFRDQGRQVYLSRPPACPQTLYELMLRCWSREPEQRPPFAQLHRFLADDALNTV
The experiment in a line: Cellular assay: inhibition of Collagen I-induced DDR1 autophosphorylation in HEK293T cells transiently transfected with DDR1 plasmid (Western blot). The class given is cell-based, human. The note with it: pcDNA3.1 DDR1 WT mouse plasmid, compound 1 h, then 10 µg/mL Collagen I 1 h, P-DDR1 (Y513), read-out: pDDR1 EC50. How it is done:
DDR1/2 cellular assay: Transient transfection of HEK293T cells with DDR1 plasmid is used to study the inhibition of the autophosphorylation of DDR1 induced by Collagen I in cells. HEK293T are seeded, 6x10^5 cells per well in 6-well plates and incubated for 6 h at 37 °C, 5% CO2. Then, cells are transfected using Effectene reactive (Quiagen) with pcDNA3.1 DDR1 WT mouse plasmid. Cells are incubated with transfection complexes under normal growth conditions for 24 h. After that, medium is replaced with fresh medium and cells are incubated for an additional 18 h. Eight serial 1:3 compound dilutions are made in DMSO. The compounds are added to each well of 6 well cell plates and are incubated at 37 °C under CO2 atmosphere 1 h. DDR1's autophosphorylation is stimulated by 1h treatment with 10 µg/mL Collagen I. Then, cells are washed in PBS, lyse adding 100 µl of complete RIPA protein lysis buffer (RIPA Buffer, 1 mM DTT, 5 mM Bezamidine, 10 µg/mL Aprotinin, 10 µg/mL Leupeptin, 710 ng/mL Pepstatin A, 100 µg/mL Trypsin Inhibitor, 40 µg/mL Bestatin, completed with PhosSTOP EASYpack and complete Mini, EDTA-free) and incubated 20 minutes at 4 °C and then centrifugated. Lysates are kept at -80 °C. The protein content of the lysates is determined by DC protein assay (Biorad, Ref. 5000116). The proteins are resolved by SDS-PAGE and transferred to nitrocellulose membrane (GE Healthcare #10600003). The membranes are incubated overnight at 4 °C with antibodies specific for DDR1 (D1G6) (Cell signaling #5583), P-DDR1 (Y513) (E1N8F) (Cell Signaling # 14531) they are washed and then incubated with Alexa Fluor 680 goat anti-rabbit IgG secondary antibodies (Invitrogen, A21076). The bands are visualized and quantified using an Odyssey infrared imaging system (Li-Cor Biosciences). The percentage of DDR1 phosphorylation is finally plotted against concentration for each compound and EC50s for intracellular DDR1 inhibition are calculated using ActivityBase from IDBS.

For assay [2], the target named is T2, DDR1 (Homo sapiens, UniProt Q08345).
T2 construct: The enzymes were purchased as a catalytic domain GST Tag DDR1(#PR6913A); purchased ThermoFisher PR6913A
The experiment in a line: LanthaScreen Eu-Kinase Binding Assay (TR-FRET tracer displacement), DDR1. The note with it: catalytic domain GST Tag DDR1; Kinase Tracer 178. The text has this:
(§1) DDR1/2 binding assay: The binding assay relies on the LanthaScreen ™ Eu-Kinase Binding Assay (ThermoFisher Scientfic). This is a kinase assay platform based on measuring the binding and displacement of an Alexa Fluor® conjugate of an ATP-competitive kinase inhibitor or tracer at a kinase active site (Kinase Tracer 178. #PV5593). Binding of the tracer to the kinase is detected by addition of a europium (Eu)-labeled anti-GST antibody (#PV 5594) which specifically labels the kinase of interest. This binding results in a high degree of fluorescence resonance energy transfer (FRET), whereas displacement of the tracer with a kinase inhibitor results in a loss of FRET. The enzymes were purchased as a catalytic domain GST Tag DDR1(#PR6913A) and DDR2 (#PR7167A) from ThermoFisher. Assay conditions were as indicated by the kit manufacturers. Assays were performed in 384-well plates. The final read out was generated using an EnVision plate reader (Perkin-Elmer). The emission ratio was calculated by dividing the acceptor/tracer emission (665 nm) by the antibody/donor emission (615 nm). Values were plotted against the inhibitor concentration and fit to a sigmoid dose-response curve using Activity base by IDBS software.
(In general: In TR-FRET formats the signal depends on donor and acceptor labels being close together.)

The target of another assay is T3, DDR2 (Homo sapiens, UniProt Q16832).
T3 construct: The enzymes were purchased as a catalytic domain GST Tag DDR1(#PR6913A) and DDR2 (#PR7167A); purchased ThermoFisher PR7167A
T3 sequence (Q16832 563-849 limits assumed): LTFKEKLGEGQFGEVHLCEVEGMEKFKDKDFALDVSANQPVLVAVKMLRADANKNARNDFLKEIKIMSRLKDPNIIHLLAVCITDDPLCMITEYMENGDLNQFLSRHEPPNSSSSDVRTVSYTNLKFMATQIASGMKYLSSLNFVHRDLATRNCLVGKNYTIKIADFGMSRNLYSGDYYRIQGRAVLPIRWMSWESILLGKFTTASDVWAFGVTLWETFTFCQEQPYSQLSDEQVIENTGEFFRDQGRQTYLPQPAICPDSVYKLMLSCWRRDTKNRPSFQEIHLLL
Put plainly: LanthaScreen Eu-Kinase Binding Assay (TR-FRET tracer displacement), DDR2. The note with it: catalytic domain GST Tag DDR2; Kinase Tracer 178.
Text: as §1

This note sets out measurements from patent EP4032896A1, “THIAZOLOPYRIMIDONES AS INHIBITORS OF DDR1/2 AND THERAPEUTIC USES THEREOF” (Fundación del Sector Público Estatal Centro Nacional de …, priority 2021, dated 2022).

As a reminder, the EC50 is the concentration at which the effect is half-maximal. One may read the IC50 as the point on the concentration scale where inhibition reaches its midpoint. Low readings indicate higher potency, high ones lower potency.

T2 sequence (Q08345 610-905 limits assumed): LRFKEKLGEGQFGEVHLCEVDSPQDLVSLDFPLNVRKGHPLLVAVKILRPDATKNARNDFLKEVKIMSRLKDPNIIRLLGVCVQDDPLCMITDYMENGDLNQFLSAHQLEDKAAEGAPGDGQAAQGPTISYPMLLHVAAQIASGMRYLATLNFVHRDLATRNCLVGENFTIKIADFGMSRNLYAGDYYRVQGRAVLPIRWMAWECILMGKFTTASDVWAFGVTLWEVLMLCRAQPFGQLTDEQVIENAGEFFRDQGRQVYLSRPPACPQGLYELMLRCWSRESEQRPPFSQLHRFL

As for `O=c1ccnc2sc(-c3ccnc(Nc4ccccc4)n3)c(-c3ccccc3)n12` [Compound 29, 3-Phenyl-2-(2-phenylamino-pyrimidin-4-yl)-thiazolo[3,2-a]pyrimidin-5-one], on DDR1 [1], the EC50 was 339 nM. Moreover, the IC50 on DDR1 [2] worked out at 69.9 nM; on DDR2, 186 nM.
Take `NS(=O)(=O)c1cccc(Nc2nccc(-c3sc4nccc(=O)n4c3-c3ccccc3)n2)c1` [Compound 30, 3-[4-(5-Oxo-3-phenyl-5H-thiazolo[3,2-a]pyrimidin-2-yl)-pyrimidin-2-ylamino]-benzenesulfonamide]: the EC50 on DDR1 [1] is 87.4 nM. Besides, the values for the IC50 at DDR1 [2] and on DDR2 were 13.9 nM and 50 nM, respectively.
For the molecule `O=c1ccnc2sc(-c3ccnc(Nc4cccc(N5CCN(CCO)CC5)c4)n3)c(-c3ccccc3)n12` [Compound 31, 2-(2-{3-[4-(2-Hydroxy-ethyl)-piperazin-1-yl]-phenylamino}-pyrimidin-4-yl)-3-phenyl-thiazolo[3,2-a]pyrimidin-5-one], at DDR1 [1], the EC50 was determined as 192 nM. For the same molecule, the IC50 at DDR1 [2] was found to be 15.5 nM; on DDR2 it was 18 nM.
Taken in the same sequence, the figures for `CN1CCN(c2ccc(Nc3nccc(-c4sc5nccc(=O)n5c4-c4ccccc4)n3)cc2)CC1` [Compound 34, 2-{2-[4-(4-Methyl-piperazin-1-yl)-phenylamino]-pyrimidin-4-yl}-3-phenyl-thiazolo[3,2-a]pyrimidin-5-one] were 15.7 nM, 13.4 nM and 39.4 nM.
For `NS(=O)(=O)c1cccc(Nc2nccc(-c3sc4nccc(=O)n4c3-c3ccccc3Cl)n2)c1` [Compound 37, 3-{4-[3-(2-Chloro-phenyl)-5-oxo-5H-thiazolo[3,2-a]pyrimidin-2-yl]-pyrimidin-2-ylamino}-benzenesulfonamide], in that order: 36 nM, 5.19 nM and 24.2 nM.
For `O=c1ccnc2sc(-c3ccnc(Nc4cccc(N5CCN(CCO)CC5)c4)n3)c(-c3ccccc3Cl)n12` [Compound 38, 3-(2-Chloro-phenyl)-2-(2-{3-[4-(2-hydroxy-ethyl)-piperazin-1-yl]-phenylamino}-pyrimidin-4-yl)-thiazolo[3,2-a]pyrimidin-5-one], in that order: 28.1 nM, 4.22 nM and 16.6 nM.
With `CN1CCN(c2ccc(Nc3nccc(-c4sc5nccc(=O)n5c4-c4ccccc4Cl)n3)cc2)CC1` [Compound 39, 3-(2-Chloro-phenyl)-2-{2-[4-(4-methyl-piperazin-1-yl)-phenylamino]-pyrimidin-4-yl}-thiazolo[3,2-a]pyrimidin-5-one], the EC50 on DDR1 [1] was determined as 35.3 nM. The IC50 on DDR1 [2] came out at 7.03 nM; on DDR2 it was 21.5 nM.
Turning to `NS(=O)(=O)c1cccc(Nc2nccc(-c3sc4nccc(=O)n4c3-c3cccc(Cl)c3)n2)c1` [Compound 40, 3-{4-[3-(3-Chloro-phenyl)-5-oxo-5H-thiazolo[3,2-a]pyrimidin-2-yl]-pyrimidin-2-ylamino}-benzenesulfonamide], the EC50 at DDR1 [1] came to 113 nM. The IC50 at DDR1 [2] amounted to 16.4 nM; on DDR2, 61.6 nM.
Consider `O=c1ccnc2sc(-c3ccnc(Nc4cccc(N5CCN(CCO)CC5)c4)n3)c(-c3cccc(Cl)c3)n12` [Compound 41, 3-(3-Chloro-phenyl)-2-(2-{3-[4-(2-hydroxy-ethyl)-piperazin-1-yl]-phenylamino}-pyrimidin-4-yl)-thiazolo[3,2-a]pyrimidin-5-one], for which the EC50 at DDR1 [1] stood at 40.4 nM. Moreover, the IC50 was determined as 6.24 nM at DDR1 [2] and 36.9 nM on DDR2.
Taken in the same sequence, the figures for `CN1CCN(c2ccc(Nc3nccc(-c4sc5nccc(=O)n5c4-c4cccc(Cl)c4)n3)cc2)CC1` [Compound 42, 3-(3-Chloro-phenyl)-2-{2-[4-(4-methyl-piperazin-1-yl)-phenylamino]-pyrimidin-4-yl}-thiazolo[3,2-a]pyrimidin-5-one] were 30.7 nM, 5.8 nM and 17.9 nM.
For `NS(=O)(=O)c1cccc(Nc2nccc(-c3sc4nccc(=O)n4c3-c3ccc(Cl)cc3)n2)c1` [Compound 43, 3-{4-[3-(4-Chloro-phenyl)-5-oxo-5H-thiazolo[3,2-a]pyrimidin-2-yl]-pyrimidin-2-ylamino}-benzenesulfonamide], in that order: 31.4 nM, 11.6 nM and 29 nM.
For the molecule `COc1cnc(Nc2cccc(S(N)(=O)=O)c2)nc1-c1sc2nccc(=O)n2c1-c1ccccc1` [Compound 69, 3-[5-Methoxy-4-(5-oxo-3-phenyl-5H-thiazolo[3,2-a]pyrimidin-2-yl)-pyrimidin-2-ylamino]-benzenesulfonamide], the IC50 at DDR1 [2] is 6880 nM; at DDR2, 8620 nM.
For `CC(C)c1cc(=O)n2c(-c3ccccc3)c(-c3ccnc(Nc4cccc(N5CCN(CCO)CC5)c4)n3)sc2n1` [Compound 73, 2-(2-{3-[4-(2-Hydroxy-ethyl)-piperazin-1-yl]-phenylamino}-pyrimidin-4-yl)-7-isopropyl-3-phenyl-thiazolo[3,2-a]pyrimidin-5-one], in that order: 12.5 nM and 33.3 nM.
Consider `Cc1nc2sc(-c3ccnc(Nc4cccc(N5CCN(CCO)CC5)c4)n3)c(-c3ccccc3)n2c(=O)c1C(C)C` [Compound 76, 2-(2-{3-[4-(2-Hydroxy-ethyl)-piperazin-1-yl]-phenylamino}-pyrimidin-4-yl)-6-isopropyl-7-methyl-3-phenyl-thiazolo[3,2-a]pyrimidin-5-one], for which the IC50 at DDR1 [2] came to 64.4 nM; at DDR2, 292 nM.
